Test results reported in ChEMBL document CHEMBL3745628, “ent-Abietane-type diterpenoids from the roots of Euphorbia ebracteolata with their inhibitory activities on LPS-induced NO production in RAW 264.7 macrophages” (Bioorg Med Chem Lett, 2016).

Tested on: RAW264.7
Experiment: Cytotoxicity against mouse RAW264.7 cells assessed as reduction in cell viability at IC50 by MTT assay
Type: cell-based
Conditions: not given

Compound | Activity
CC1=C2C(=C[C@H]3[C@]4(C)CCCC(C)(C)[C@H]4CC[C@]34O[C@H]24)OC1=O | Non-toxic
CC1=C2[C@H](OC1=O)[C@H](O)[C@H]1[C@]3(C)CCCC(C)(C)[C@H]3CC[C@@]1(O)[C@H]2O | Non-toxic
CC1=C2[C@@H](O)[C@@]3(O)CC[C@@H]4C(C)(C)CCC[C@@]4(C)[C@@H]3[C@@H](O)[C@H]2OC1=O | Non-toxic
CC1=C2[C@H]3O[C@]34CC[C@@H]3C(C)(C)CCC[C@@]3(C)[C@@H]4[C@@H](O)[C@H]2OC1=O | Non-toxic
CC1=C2[C@@H](O)C3=C([C@@H](O)[C@H]2OC1=O)[C@]1(C)CCCC(C)(C)[C@H]1CC3 | Non-toxic
CC1=C2[C@@H](O)C3=CC[C@@H]4C(C)(C)CCC[C@@]4(C)[C@@H]3[C@@H](O)[C@H]2OC1=O | Non-toxic
CC1=C2C=C3CC[C@@H]4C(C)(C)CCC[C@@]4(C)[C@@H]3[C@@H](O)[C@H]2OC1=O | Non-toxic
CO[C@@]12OC(=O)C(C)=C1C=C1CC[C@@H]3C(C)(C)CCC[C@@]3(C)[C@@H]1[C@H]2O | Non-toxic
CC1=C2C(=O)C3=C([C@@H](O)[C@H]2OC1=O)[C@]1(C)CCCC(C)(C)[C@H]1CC3 | Non-toxic

Tested on: RAW264.7
Experiment: Antiinflammatory activity in mouse RAW264.7 cells assessed as inhibition of LPS-induced NO production after 24 hrs by Griess method
Type: functional, cell-based
Conditions: RAW264.7, 24 h

Compound | IC50 [µM]
CC1=C2C(=C[C@H]3[C@]4(C)CCCC(C)(C)[C@H]4CC[C@]34O[C@H]24)OC1=O | 25
CC1=C2[C@@H](O)C3=C([C@@H](O)[C@H]2OC1=O)[C@]1(C)CCCC(C)(C)[C@H]1CC3 | 33.1
CC1=C2[C@@H](O)C3=CC[C@@H]4C(C)(C)CCC[C@@]4(C)[C@@H]3[C@@H](O)[C@H]2OC1=O | 14.2
CC1=C2C=C3CC[C@@H]4C(C)(C)CCC[C@@]4(C)[C@@H]3[C@@H](O)[C@H]2OC1=O | 5.94
CO[C@@]12OC(=O)C(C)=C1C=C1CC[C@@H]3C(C)(C)CCC[C@@]3(C)[C@@H]1[C@H]2O | 1.97
CC1=C2C(=O)C3=C([C@@H](O)[C@H]2OC1=O)[C@]1(C)CCCC(C)(C)[C@H]1CC3 | 0.69

The next lines start with the values.

IC50 [µM] | Compound
15.5 | CC1=C2[C@H](OC1=O)[C@H](O)[C@H]1[C@]3(C)CCCC(C)(C)[C@H]3CC[C@@]1(O)[C@H]2O
4.44 | CC1=C2[C@@H](O)[C@@]3(O)CC[C@@H]4C(C)(C)CCC[C@@]4(C)[C@@H]3[C@@H](O)[C@H]2OC1=O
6.98 | CC1=C2[C@H]3O[C@]34CC[C@@H]3C(C)(C)CCC[C@@]3(C)[C@@H]4[C@@H](O)[C@H]2OC1=O
